Assay results: patent publication US20210130826A1, “METHODS OF MODULATING ANTISENSE ACTIVITY” (IONIS PHARMACEUTICALS, INC., priority 2018, published 2021)

Tests used:
Malat-1 [1] = assay: Malat-1 RNA by RT-qPCR in A431 cells; assay type: cell-based, human; conditions: MOE gapmer
Method: RT-qPCR analysis was performed to detect RNA levels of Malat-1 using primer probe set RTS2736. Results were normalized to cyclophilin A levels (measured using HTS3936). […] Each table below represents results from an individual assay.

[2] = tested on: mTOR kinase activity (pS6/S6 levels); assay: Liver protein analysis in mice: pS6/S6; assay type: in vivo; conditions: Table 30; mouse liver 24 h; oligonucleotide 5 mg/kg (or PBS); Treatment AZD8055 5 mg/kg at 0, 12, 22 h
Method: The following experiments were performed to determine if the effects of autophagy modulators on antisense activity in vitro can be observed in vivo. […] Following administration of modified oligonucleotide, mice were administered 1% DMSO or 5 mg/kg AZD8055 in 1% DMSO at three time points over 24 hours: at the time of administration of the modified oligonucleotide, and 12 and 22 hours after administration of the modified oligonucleotide. A group of control mice was administered PBS at time 0 and 1% DMSO at 0, 12, and 22 hours. Mice were sacrificed at 24 hours after administration of the modified oligonucleotide and tissues were collected for analysis.
Protein analysis was carried out on liver tissue using standard procedures. All proteins were normalized to α-tubulin. […] The antibody against LC3B (ab48394) was purchased from Abcam. […] Antibody against P62 (GP62-C) was purchased from Progen.
A group of control mice was administered PBS at time 0 and 1% DMSO at 0, 12, and 22 hours. Mice were sacrificed at 24 hours after administration of the modified oligonucleotide and tissues were collected for analysis. […]

Malat-1 [3] = assay: MALAT-1 RNA in mouse liver by RT-qPCR; assay type: in vivo
Method: The following experiments were performed to determine if the effects of autophagy modulators on antisense activity in vitro can be observed in vivo. […] Mice were sacrificed at 24 hours after administration of the modified oligonucleotide and tissues were collected for analysis. […] Atg7 mRNA levels are a marker of the induction of autophagy in treated mouse livers. Results are presented as percent change of RNA, relative to PBS control treated with DMSO, normalized to mouse cyclophilin A measured using mouse primer probe set Cyclophilin-A (forward sequence [NT], designated herein as SEQ ID NO: 38; reverse sequence [NT], designated herein as SEQ ID NO: 39; probe sequence [NT], designated herein as SEQ ID NO: 40). […] Following administration of modified oligonucleotide, groups of mice were either allowed free access to chow (control) or fasted overnight (16 hr fast). Mice were sacrificed at 16 hours after administration of the modified oligonucleotide and tissues were collected for analysis. […] Atg7 mRNA levels are a marker of the induction of autophagy in treated mouse livers. Results are presented in Table 33 relative to mice treated with PBS and allowed normal access to chow. […] Mice were sacrificed at 24 hours after administration of the modified oligonucleotide and tissues were collected for analysis. […] Atg7 mRNA levels are a marker of the induction of autophagy in treated mouse livers. […] RNA was extracted from liver tissue for real-time RTPCR analysis of MALAT1 RNA expression. Primer probe set 15877 was used to measure mouse MALAT1 RNA levels. Results are presented as percent change of RNA, relative to PBS control, normalized to mouse cyclophilin A measured using mouse primer probe set Cyclophilin-A. […] RNA was extracted from liver tissue for real-time RTPCR analysis of MALAT1 RNA expression. Primer probe set 15877 was used to measure mouse MALAT1 RNA levels. Results are presented as percent change of RNA, relative to PBS control, normalized to mouse cyclophilin A measured using mouse primer probe set Cyclophilin-A.

Atg7 = Atg7 mRNA in mouse liver by RT-qPCR; assay type: in vivo; conditions: Table 31; mouse liver 24 h; oligonucleotide 5 mg/kg; AZD8055 5 mg/kg at 0, 12, 22 h
Method: The following experiments were performed to determine if the effects of autophagy modulators on antisense activity in vitro can be observed in vivo. […] Mice were sacrificed at 24 hours after administration of the modified oligonucleotide and tissues were collected for analysis. […] Atg7 mRNA levels are a marker of the induction of autophagy in treated mouse livers. Results are presented as percent change of RNA, relative to PBS control treated with DMSO, normalized to mouse cyclophilin A measured using mouse primer probe set Cyclophilin-A (forward sequence [NT], designated herein as SEQ ID NO: 38; reverse sequence [NT], designated herein as SEQ ID NO: 39; probe sequence [NT], designated herein as SEQ ID NO: 40). […] Following administration of modified oligonucleotide, groups of mice were either allowed free access to chow (control) or fasted overnight (16 hr fast). Mice were sacrificed at 16 hours after administration of the modified oligonucleotide and tissues were collected for analysis. […] Atg7 mRNA levels are a marker of the induction of autophagy in treated mouse livers. Results are presented in Table 33 relative to mice treated with PBS and allowed normal access to chow. […] Mice were sacrificed at 24 hours after administration of the modified oligonucleotide and tissues were collected for analysis. […]

## COc1ccc(-c2ccc3c(N4CCOC[C@@H]4C)nc(N4CCOC[C@@H]4C)nc3n2)cc1CO [AZD8055]
Malat-1 [1]
  effect of autophagy modulator on modified oligonucleotide activity (in words): significantly enhanced modified oligonucleotide activity
[2]
  pS6/S6 ratio: 0.2
Malat-1 [3]; Table 31, mouse liver 24 h, oligonucleotide 5 mg/kg, AZD8055 5 mg/kg at 0, 12, 22 h
  Malat-1 level (% relative to PBS/DMSO-treated mice): 121%
Malat-1 [3]; mouse liver, 399462 5 mg/kg, AZD8055 5 mg/kg
  effect on ASO activity in vivo (in words): greater Malat1 RNA reduction
Atg7
  Atg7 level (% relative to PBS/DMSO-treated mice): 112%
